According to US10266535B2, “Inhibitor of FLT3 kinase and use thereof” (HEFEI INSTITUTES OF PHYSICAL SCIENCE, CHINESE ACADEMY OF …, priority 2015, dated 2019):
Structures can show the parent of a compound that is named as a salt. Where two headings read alike, the source gives them in different places.

Experiments:
[1] = tested on: TEL-BaF3-FLT3/ITD (stably expressing FLT3/ITD mutant activated kinase); assay: Cell proliferation, Cell Titer-Glo, TEL-BaF3-FLT3/ITD; format: cell-based, mouse; details: incubated for 72 hours, read-out: TEL-BaF3-FLT3/ITD IC50
Protocol: (§1) The above cell lines were constructed by our laboratory.
(§2) The number of viable cells was determined by quantification of ATP in living cells using the Cell Titer-Glo® (Promega, USA) chemiluminescence cell viability assay kit.

[2] = tested on: U937 (expressing wild-type FLT3 gene); assay: Cell proliferation, Cell Titer-Glo, U937; format: cell-based, human; details: incubated for 72 hours, read-out: U937 IC50
Protocol: as §1, §2

BTK protein kinase = BTK protein kinase (Homo sapiens (Human), UniProt Q06187); assay: In vitro inhibition activity (enzymatic activity), ADP-Glo, BTK; format: biochemical; details: ATP 10 μM
[3] = tested on: MV4-11 (expressing FLT3/ITD mutant gene); assay: Cell proliferation, Cell Titer-Glo, MV4-11; format: cell-based; details: Homo sapiens, MV4-11; incubated for 72 hours; read-out: MV4-11 IC50
Protocol: as §1, §2

[4] = tested on: MOLM-13 (expressing FLT3/ITD mutant gene and wild-type FLT3 gene); assay: Cell proliferation, Cell Titer-Glo, MOLM-13; format: cell-based; details: Homo sapiens, MOLM-13; incubated for 72 hours; read-out: MOLM-13 IC50
Protocol: as §1, §2

[5] = tested on: MOLM-14 (expressing FLT3/ITD mutant gene and wild-type FLT3 gene); assay: Cell proliferation, Cell Titer-Glo, MOLM-14; format: cell-based; details: Homo sapiens, MOLM-14; incubated for 72 hours; read-out: MOLM-14 IC50
Protocol: as §1, §2

[6] = tested on: TEL-BaF3-FLT3-D835Y (stably expressing FLT3 D835Y mutant activated kinase); assay: Cell proliferation, Cell Titer-Glo, TEL-BaF3-FLT3-D835Y; format: cell-based; details: Mus musculus; incubated for 72 hours; read-out: TEL-BaF3-FLT3-D835Y IC50
Protocol: as §1, §2

[7] = tested on: TEL-BaF3-BMX (stably expressing BMX kinase); assay: Cell proliferation, Cell Titer-Glo, TEL-BaF3-BMX; format: cell-based; details: Mus musculus; incubated for 72 hours
Protocol: as §1, §2

[8] = tested on: TEL-cKIT-BaF3 (stably expressing cKIT kinase); assay: Cell proliferation, Cell Titer-Glo, TEL-cKIT-BaF3; format: cell-based; details: Mus musculus; incubated for 72 hours
Protocol: as §1, §2

[9] = tested on: TPR-MET-BaF3 (stably expressing MET kinase); assay: Cell proliferation, Cell Titer-Glo, TPR-MET-BaF3; format: cell-based; details: Mus musculus; incubated for 72 hours
Protocol: as §1, §2

[10] = tested on: TEL-BaF3-BLK (stably expressing BLK kinase); assay: Cell proliferation, Cell Titer-Glo, TEL-BaF3-BLK; format: cell-based; details: Mus musculus; incubated for 72 hours
Protocol: as §1, §2

[11] = tested on: TEL-JAK1-BaF3 (stably expressing JAK1 kinase); assay: Cell proliferation, Cell Titer-Glo, TEL-JAK1-BaF3; format: cell-based; details: Mus musculus; incubated for 72 hours
Protocol: as §1, §2

pro-B cell BaF3 = assay: Cell proliferation, Cell Titer-Glo, BaF3; format: cell-based; details: Mus musculus, incubated for 72 hours
Protocol: as §1, §2

[12] = tested on: OCI-AML-3 (expressing FLT3 A680V mutant gene); assay: Cell proliferation, Cell Titer-Glo, OCI-AML3; format: cell-based; details: Homo sapiens, incubated for 72 hours
Protocol: as §1, §2

Sequence of BTK protein kinase (Q06187 whole entry): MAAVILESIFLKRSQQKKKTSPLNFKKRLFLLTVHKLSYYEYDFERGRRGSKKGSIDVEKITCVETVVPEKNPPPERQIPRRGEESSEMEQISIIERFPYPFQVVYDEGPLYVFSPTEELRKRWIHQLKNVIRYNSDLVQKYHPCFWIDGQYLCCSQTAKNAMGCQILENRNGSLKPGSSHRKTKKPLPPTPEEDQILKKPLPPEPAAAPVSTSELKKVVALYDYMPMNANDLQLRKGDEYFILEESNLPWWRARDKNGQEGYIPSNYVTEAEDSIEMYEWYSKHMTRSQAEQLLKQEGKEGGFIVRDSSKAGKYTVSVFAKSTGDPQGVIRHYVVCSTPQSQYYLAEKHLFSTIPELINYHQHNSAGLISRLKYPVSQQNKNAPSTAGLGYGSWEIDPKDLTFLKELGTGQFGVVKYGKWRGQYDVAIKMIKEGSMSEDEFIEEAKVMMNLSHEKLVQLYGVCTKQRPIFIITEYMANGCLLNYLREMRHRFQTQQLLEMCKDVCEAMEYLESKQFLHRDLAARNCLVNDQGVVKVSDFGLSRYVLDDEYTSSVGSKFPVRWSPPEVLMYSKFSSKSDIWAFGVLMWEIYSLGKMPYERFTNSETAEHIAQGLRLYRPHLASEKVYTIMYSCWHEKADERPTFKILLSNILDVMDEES

IC50 ([1]; Mus musculus, 72 h) [nM]	IC50 ([2]; Homo sapiens, U-937, 72 h) [nM]	IC50 [3] [nM]	IC50 [4] [nM]	IC50 [7] [nM]	IC50 [8] [nM]	IC50 [11] [nM]	IC50 (pro-B cell BaF3) [nM]	IC50 [12] [nM]	SMILES	IC50 (BTK protein kinase) [nM]	IC50 [5] [nM]	IC50 [6] [nM]	IC50 [9] [nM]	IC50 [10] [nM]	IC50 [1] [nM]	IC50 [2] [nM]
41		120	1900	390	5300	910	2150		CC(C)C[C@@H](N)C(=O)N1CC[C@@H](n2nc(-c3ccc(Oc4ccccc4)cc3)c3c(N)ncnc32)C1 [Compound 28, (R)-2-amino-1-((R)-3-(4-amino-(4-phenoxyphenyl)-1H-pyrazolo[3,4-d]pyrimidin-1-yl)pyrrolidin-1-yl)-4-methylpentan-1-one]					83		
160	4450	760						6610	CCCS(=O)(=O)N1CCC[C@@H](n2nc(-c3ccc(Oc4ccccc4)cc3)c3c(N)ncnc32)C1 [Compound 40, (R)-3-(4-phenoxyphenyl)-1-(1-(propylsulfonyl)piperidin-3-yl)-1H-pyrazolo[3,4-d]pyrimidin-4-amine]							
140	5840	570						4850	CCS(=O)(=O)N1CCC[C@@H](n2nc(-c3ccc(Oc4ccccc4)cc3)c3c(N)ncnc32)C1 [Compound 41, (R)-3-(4-phenoxyphenyl)-1-(1-(ethylsulfonyl)piperidin-3-yl)-1H-pyrazolo[3,4-d]pyrimidin-4-amine]							
390	> 10000	1900						> 10000	Nc1ncnc2c1c(-c1ccc(Oc3ccccc3)cc1)nn2[C@@H]1CCCN(C(=O)C(Cl)(Cl)Cl)C1 [Compound 42]							
390	5680	750						8610	NCCC(=O)N1CCC[C@@H](n2nc(-c3ccc(Oc4ccccc4)cc3)c3c(N)ncnc32)C1 [Compound 46]							
460	> 10000	2400						> 10000	CC(C)(C)CC(=O)N1CCC[C@@H](n2nc(-c3ccc(Oc4ccccc4)cc3)c3c(N)ncnc32)C1 [Compound 49]							
260	> 10000	2400						> 10000	CCC(C)(C)C(=O)N1CCC[C@@H](n2nc(-c3ccc(Oc4ccccc4)cc3)c3c(N)ncnc32)C1 [Compound 50]							
150	> 10000	610						> 10000	Nc1ncnc2c1c(-c1ccc(Oc3ccccc3)cc1)nn2[C@@H]1CCCN(C(=O)CC(F)(F)F)C1 [Compound 51]							
82	> 10000	410						7890	Nc1ncnc2c1c(-c1ccc(Oc3ccccc3)cc1)nn2[C@@H]1CCCN(C(=O)CC2CC2)C1 [Compound 52]							
770	> 10000	3400						> 10000	CC(C)CC(=O)N1CCC[C@@H](n2nc(-c3ccc(Oc4ccccc4)cc3)c3c(N)ncnc32)C1 [Compound 53]							
450	> 10000	1200						> 10000	CCCC(=O)N1CCC[C@@H](n2nc(-c3ccc(Oc4ccccc4)cc3)c3c(N)ncnc32)C1 [Compound 54]							
1800	> 10000	> 10000						> 10000	CC(C)(C)C(=O)N1CCC[C@@H](n2nc(-c3ccc(Oc4ccccc4)cc3)c3c(N)ncnc32)C1 [Compound 55]							
120		60	760	2300	3400	4710	8430		NC(=O)CC[C@@H](N)C(=O)N1CCC[C@@H](n2nc(-c3ccc(Oc4ccccc4)cc3)c3c(N)ncnc32)C1 [Compound 57]					540		
300		520	1360			770	4370		COC(=O)N1CCC(C(=O)N2CCC[C@@H](n3nc(-c4ccc(Oc5ccccc5)cc4)c4c(N)ncnc43)C2)CC1 [Compound 60, (R)-methyl 4-(3-(4-amino-(4-phenoxyphenyl)-1H-pyrazolo[3,4-d]pyrimidin-1-yl)piperidine-1-carbonyl)piperidin-1-carboxylate]							
80		175	480	90	2500	1300	7590		NCC(=O)N1CC[C@@H](n2nc(-c3ccc(Oc4ccccc4)cc3)c3c(N)ncnc32)C1 [Compound 64]					9.8		
41		83	230	1200	3500	890	8420		CN(C)CC(=O)N1CC[C@@H](n2nc(-c3ccc(Oc4ccccc4)cc3)c3c(N)ncnc32)C1 [Compound 65]					360		
< 0.3		< 0.3					1900		CN[C@H](CC(C)C)C(=O)NC1CCC(n2nc(-c3ccc(Oc4ccccc4)cc3)c3c(N)ncnc32)CC1 (stereo partly drawn) [Compound 92, (R)-N-(4-(4-amino-(4-phenoxyphenyl)-1H-pyrazolo[3,4-d]pyrimidin-1-yl)cyclohexyl)-4-methyl-2-(methylamino)pentanamide hydrochloride]		< 0.3	< 0.3				

SMILES	IC50 ([1]; Mus musculus, 72 h) [nM]	IC50 ([2]; Homo sapiens, U-937, 72 h) [nM]	IC50 [3] [nM]	IC50 [4] [nM]	IC50 [7] [nM]	IC50 [8] [nM]	IC50 [11] [nM]	IC50 (pro-B cell BaF3) [nM]	IC50 [12] [nM]	IC50 (BTK protein kinase) [nM]	IC50 [5] [nM]	IC50 [6] [nM]	IC50 [9] [nM]	IC50 [10] [nM]	IC50 [1] [nM]	IC50 [2] [nM]
Nc1ncnc2c1c(-c1ccc(Oc3ccccc3)cc1)nn2[C@@H]1CCCN(C(=O)[C@@H](N)Cc2c[nH]cn2)C1 [Compound 6, (S)-2-amino-1-((R)-3-(4-amino-(4-phenoxyphenyl)-1H-pyrazolo[3,4-d]pyrimidin-1-yl)piperidin-1-yl)-3-(1H-imidazol-4-yl)propan-1-one]	1100	> 10000								128						
Nc1ncnc2c1c(-c1ccc(Oc3ccccc3)cc1)nn2[C@@H]1CCCN(C(=O)[C@@H](N)Cc2c[nH]c3ccccc23)C1 [Compound 9, (S)-2-amino-1-((R)-3-(4-amino-(4-phenoxyphenyl)-1H-pyrazolo[3,4-d]pyrimidin-1-yl)piperidin-1-yl)-3-(1H-indol-3-yl)propan-1-one]		> 10000								49						
CC(C)C[C@H](N)C(=O)N1CCC[C@@H](n2nc(-c3ccc(Oc4ccccc4)cc3)c3c(N)ncnc32)C1 [Compound 12, (S)-2-amino-1-((R)-3-(4-amino-(4-phenoxyphenyl)-1H-pyrazolo[3,4-d]pyrimidin-1-yl)piperidin-1-yl)-4-methylpentan-1-one]	45	1600	64	46	600	1000	520			349	77	48	1500	960		
CC(O)[C@@H](N)C(=O)N1CCC[C@@H](n2nc(-c3ccc(Oc4ccccc4)cc3)c3c(N)ncnc32)C1 (stereo partly drawn) [Compound 44, (R)-2-amino-1-((R)-3-(4-amino-(4-phenoxyphenyl)-1H-pyrazolo[3,4-d]pyrimidin-1-yl)piperidin-1-yl)-3-hydroxybutanone]	22	> 10000	64	72	119			3900	3760	53	59		2760	1000		
C[C@@H](N)C(=O)N1CCC[C@@H](n2nc(-c3ccc(Oc4ccccc4)cc3)c3c(N)ncnc32)C1 [Compound 47]			54	34	56			3800	2700	27	48		2460	680	22	> 10000
Nc1ncnc2c1c(-c1ccc(Oc3ccccc3)cc1)nn2[C@@H]1CCCN(C(=O)[C@H](N)CO)C1 [Compound 48]	46	> 10000	61	52				6500	4360	28	79		3520	1100		
